Laboratory results published in US8466184B2, “Biocide” (Titan Chemicals Limited, priority 2011, dated 2013).

Columns and labels:
[1] = Measuring stability of water solutions (temperature at which the solution remained fluid after 24 hours and seeding); format: physicochemical; conditions: after 24 hours and seeding with seed crystal
Description: According to the invention there is therefore provided a composition consisting essentially of water and the tetramethylammonium salt of 1,2-benzisothiazolin-3-one having a freezing point of less than about 0° C., such as less than about −1° C. for example less than about −3° C., about −5° C., about −10° C., about −15° C., about −20° C., about −25° C. or −30° C. As used herein the expression “freezing point” means that the composition is fluid after 24 hours and seeded with solid tetramethylammonium salt of 1,2-benzisothiazolin-3-one.
A series of solutions of tetramethylammonium BIT in distilled water were prepared. In series of experiments the temperature at which the solution remained fluid after 24 hours and seeding with a seed crystal of tetramethylammonium BIT was measured.

[2] = 59 wt % tetramethylammonium BIT (40 wt % BIT) in water; after storage for 24 hours and seeding; cited from earlier work

C[N+](C)(C)C.O=c1[n-]sc2ccccc12 [tetramethylammonium BIT, tetramethylammonium salt of 1,2-benzisothiazolin-3-one]
Temp at which the solution remained fluid ([1]; 20.3 % BIT concn in distilled water): −5 °C
Temp at which the solution remained fluid ([1]; 25.3 % BIT concn in distilled water): −8 °C
Temp at which the solution remained fluid ([1]; 30.4 % BIT concn in distilled water): −13 °C
Temp at which the solution remained fluid ([1]; 35.6 % BIT concn in distilled water): −20 °C
Temp at which the solution remained fluid ([1]; 39.3 % BIT concn in distilled water): −32 °C
Temp at which the solution remained fluid ([1]; 42.6 % BIT concn in distilled water): −10 °C
Temp at which the solution remained fluid ([1]; 45 % BIT concn in distilled water): 5 °C
freezing point of lowest freezing point water solution [2]: 3 °C
